Laboratory results as given in the SangsterLogP compilation.

Compound | logP
Cc1ccc(C(=O)N2CCCCC2)cc1 | 2.8
O=C(c1ccccc1Cl)N1CCCCC1 | 2.8
O=C(Cc1ccccc1)N1CCCCC1 | 2.44
CC(C)N(C(=O)Cc1ccccc1)C(C)C | 3.1
Cc1cccc(C(=O)N2CCCCC2)c1 | 2.6
CCOc1ccccc1C(=O)N(C(C)C)C(C)C | 3
CN(C)C(=O)CC1CCCCC1 | 2.19
COc1ccc(C(=O)N(C(C)C)C(C)C)cc1 | 2.8
CCNC(=O)c1ccc(OC)cc1 | 1.14
O=C(c1ccccc1)N1CCCCC1 | 2.2
CCN(CC)C(=O)c1cccc(C)c1 | 2.34
CCNC(=O)Cc1ccccc1 | 1
CCNC(=O)c1ccccc1OCC | 2.4
CCNC(=O)CC1CCCCC1 | 2.28
CC(C)N(C(=O)c1ccccc1)C(C)C | 2.5
Cc1cccc(C(=O)N(C)C)c1 | 1.6
CCNC(=O)c1ccccc1Cl | 0.95
CCN(CC)C(=O)c1ccccc1Cl | 2.1

Compound | logP
CCN(CC)C(=O)c1ccc(OC)cc1 | 2.5
CN(C)C(=O)c1ccccc1 | 1.2
CCNC(=O)c1ccc(C)cc1 | 1.38
Cc1ccc(C(=O)N(C(C)C)C(C)C)cc1 | 2.5
Cc1ccc(C(=O)N(C)C)cc1 | 1.72
CCOc1ccccc1C(=O)N(CC)CC | 2.5
O=C(CC1CCCCC1)N1CCCCC1 | 3.2
Cc1cccc(C(=O)N(C(C)C)C(C)C)c1 | 3
CN(C)C(=O)c1ccccc1Cl | 1.54
CCNC(=O)c1cccc(C)c1 | 1.32
CN(C)C(=O)Cc1ccccc1 | 1.48
CC(C)N(C(=O)c1ccccc1Cl)C(C)C | 3
CCN(CC)C(=O)CC1CCCCC1 | 3.12
COc1ccc(C(=O)N2CCCCC2)cc1 | 2.4
CCN(CC)C(=O)c1ccc(C)cc1 | 2.38
CCN(CC)C(=O)c1ccccc1 | 1.8
CCOc1ccccc1C(=O)N1CCCCC1 | 2.6
CCN(CC)C(=O)Cc1ccccc1 | 2.4
